For one experiment, the system named is hRSV strain 15 595. Kind of experiment: hRSV Balb/C mouse model, five-day treatment (experiment 4). In kind it is in vivo. Conditions: day 5 post hRSV infection, 500 μM, 5-day treatment, vs untreated and PAR-1 agonist treated mice. As for the experimental part:
The clinical hRSV A strain 15 959 that was passed nine times on Hep2 cells, was grown on Hep2 cells in MEM™ (Life Technologies) supplemented with 2% FBS (Wisent). Hep2 cells were infected with 10 TCID50/Hep2 cell of hRSV 15 959 and plated out into one flask (150 cm^2) until 60% cytopathic effects were observed. Infected monolayers and supernatants were recovered with a cell scraper and sonicated. The pooled preparation was centrifuged (1200 r.p.m., 10 min) to remove cellular debris. Supernatant was aliquoted and stored at −80° C. The same protocol was followed for a flask of uninfected cells for control mice.
hMPV viral titers were determined by 10-fold serial dilutions of virus in 24-well plates containing LLC-MK2 cells. […] Infected plates were incubated at 37° C. with 5% CO2 and replenished with 1 μl of fresh trypsin (0.0002%) every other day. hRSV viral titers were determined by 10-fold serial dilutions of virus in 24-well plates containing Hep2 cells. […] The presence of hRSV was detected by an immuno-staining assay using a monoclonal goat Anti-Respiratory Syncytial Virus primary antibody and a donkey anti-Goat IgG Secondary Antibody, HRP conjugate (both from Cederlane). […] TCID50 were calculated by the Reed and Muench method. […]
Differences in weight loss between groups was analysed by repeated measures two-way ANOVA. […]

The test system of a further experiment is hMPV strain C-85473. Kind of experiment: hMPV-infected BALB/c mice, three-day prophylactic treatment regimen (experiment 1). In kind it is in vivo. The note with it: 3-day treatment. The protocol:
hMPV viral titers were determined by 10-fold serial dilutions of virus in 24-well plates containing LLC-MK2 cells. Before infection, cells were washed twice with phosphate-buffered saline (PBS) to remove residual serum proteins that could inhibit trypsin activity. Infected plates were incubated at 37° C. with 5% CO2 and replenished with 1 μl of fresh trypsin (0.0002%) every other day. hRSV viral titers were determined by 10-fold serial dilutions of virus in 24-well plates containing Hep2 cells. Before infection, cells were washed twice with phosphate-buffered saline (PBS). Infected plates were incubated at 37° C. with 5% CO2. On day 4 post infection, plates were fixed with 80% acetone at −20° C. for 30 min, washed with PBS and air dried. The presence of hRSV was detected by an immuno-staining assay using a monoclonal goat Anti-Respiratory Syncytial Virus primary antibody and a donkey anti-Goat IgG Secondary Antibody, HRP conjugate (both from Cederlane). Virus titers were reported as 50% tissue culture infectious doses (TCID50) per ml, per mouse or per gram of lung. The lower limit of detection of the assay is 10^2 TCID50 per gram. TCID50 were calculated by the Reed and Muench method.
In the first protocol, groups of 12 4-6-week-old female BALB/c mice (Charles River Laboratories) were infected intranasally with 4-7×10^5 TCID50 hMPV strain C-85473 in 25 μl of OptiMEM™ supplemented with the PAR-1 or PAR-1 antagonist at a final concentration of 50 μM or 500 μM. As infected controls, groups of 12 4-6-week-old BALB/c mice (Charles River Laboratories) were infected intranasally with 4-7×10^5 TCID50 hMPV strain C-85473 in 25 μl of OptiMEM™ supplemented with H2O or DMSO. As an uninfected control, 12 mice were sham infected with the concentrated supernatant of non-infected LLC-MK2 cells supplemented with DMSO. On day 1 and 2 post infection, animals were treated with the PAR-1 agonist or PAR-1 antagonist at a final concentration of 50 μM or 500 μM, or H2O or DMSO for control groups, resulting in a 3-day treatment in total. All animals were housed in groups of four in micro-isolator cages. The animals were evaluated on a daily basis for mortality, weight loss, and the presence of symptoms. On day 5 post-infection, lungs were removed from six mice per group for the evaluation of viral titres by cell culture and cytokine expression by Luminex™.
On day 5 post infection, six animals per group were sacrificed, the lungs were removed and snap frozen in liquid nitrogen. Lungs were weighed, homogenized in 1 ml of PBS, centrifuged (2000 rpm, 10 min) and the supernatant was used to infect LLC-MK2 monolayers (in case of hMPV-infected mice) or Hep2 monolayer (in case of hRSV-infected mice) for virus titration as reported in the section “Viral titers”.
250 μL of lung homogenates (see section “Pulmonary viral titers”) were added to 250 μl 50 mM KPO4, pH 6.0 buffer containing 0.2% CHAPS {3-[(3-cholamidopropyl)-dimethylammonio]1-1-propanesulfonate} (Sigma) and 0.2% of a protease inhibitor cocktail (Sigma) and stored at −20° C. until the day of analysis. Samples were centrifuged at 13,800×g for 10 min at 4° C., and 50 μl of the supernatant was used for cytokine quantification. Levels of interleukin-4, IL-6, IL-12(p40), IL-12(p70), IFN-γ, KC, MCP-1, MIP-1α, RANTES were determined by the use of a 9-plex mouse bead kits (BioRad™/Millipore™) according to the manufacturer's instructions. Experiments were performed in a 96-well filter plate and results were analysed with the Luminex™ system (Qiagen™).
Differences in weight loss between groups was analysed by repeated measures two-way ANOVA. Viral titers, cytokine levels and mean histopathology scores were analysed using student t-test.

As for `CC(C)c1ccc(Cn2ccc3c4c(N)nc(NC5CC5)nc4ccc32)cc1` [PAR-1 antagonist, N3-cyclopropyl-7-{[4(I-methylethyl)phenyl]methyl)-7H-pyrrolo[3,2-f]quinazoline-I,3-diamine], the lung viral titers result in the experiment on hRSV strain 15 595 was “significantly reduced viral titers”. Also, the pulmonary viral titers entry in the experiment with hMPV strain C-85473 (day 5 post hMPV infection, 50 or 500 μM, vs diluted DMSO or H2O treated mice) is given as “significant (though not dose-dependent) reduction”. The “cytokine expression in the lungs” value in the experiment on hMPV strain C-85473 (day 5 post infection, 50 or 500 μM, Luminex) is “no significant difference in cytokine expression”. Moreover, the weight loss entry in the experiment with hMPV strain C-85473 (hMPV-infected mice, 50 or 500 μM intranasal, vs infected untreated mice (H2O or DMSO), followed 14 days) was “dose dependent reduction in weight loss”.

The values are drawn from patent publication US20140378502A1, “Par1 Inhibitors for Use in the Treatment or Prevention of Paramyxoviridae Infections” (Université Laval, priority 2011, published 2014).
